Assay results as given in patent US6737383B1, “Herbicidal oxadiazolidines” (priority 1999, dated 2004).

Legend:
[1] = tested on: pigweed; assay: Test B pre/postemergence pigweed; assay type: in vivo, Amaranthus retroflexus
Method in brief: (§1)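 Herbicidal effect was estimated by eye on a ten-point control scale after plants spent twelve to sixteen days in a greenhouse following soil or foliar treatment. Foliar sprays targeted plants at one to four leaves; all doses were formulated in a non-phytotoxic solvent with surfactant.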

[2] = tested on: velvetleaf; assay: Test B pre/postemergence velvetleaf; assay type: in vivo, Abutilon theophrasti
Method in brief: as §1

[3] = tested on: smallflower flatsedge; assay: Test B flood test smallflower flatsedge; assay type: in vivo, Cyperus difformis
Method in brief: (§2)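 Read-out is a visual response score from 0 (no effect) to 10 (complete control), assigned by comparison with untreated controls. Treatment was applied at the 2-leaf stage, and plants stayed in the greenhouse for twelve to sixteen days before scoring.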

[4] = tested on: surinam grass; assay: Test B pre/postemergence surinam grass; assay type: in vivo, Brachiaria decumbens
Method in brief: as §1

[5] = tested on: wheat; assay: Test B pre/postemergence wheat; assay type: in vivo, Triticum aestivum
Method in brief: as §1

[6] = tested on: duck salad; assay: Test B flood test duck salad; assay type: in vivo, Heteranthera limosa
Method in brief: as §2

[7] = tested on: bamyardgrass; assay: Test B flood test barnyardgrass; assay type: in vivo, Echinochloa crus-galli
Method in brief: as §2

[8] = tested on: soybean; assay: Test B pre/postemergence soybean; assay type: in vivo, Glycine max
Method in brief: as §1

[9] = tested on: purple nutsedge; assay: Test B pre/postemergence purple nutsedge; assay type: in vivo, Cyperus rotundus
Method in brief: as §1

[10] = tested on: blackgrass; assay: Test B pre/postemergence blackgrass; assay type: in vivo, Alopecurus myosuroides
Method in brief: as §1

[11] = tested on: rape; assay: Test B pre/postemergence rape; assay type: in vivo, Brassica napus
Method in brief: as §1

[12] = tested on: morningglory; assay: Test B pre/postemergence morningglory; assay type: in vivo, Ipomoea hederacea
Method in brief: as §1

[13] = tested on: giant foxtail; assay: Test B pre/postemergence giant foxtail; assay type: in vivo, Setaria faberii
Method in brief: as §1

[14] = tested on: bedstraw; assay: Test B pre/postemergence bedstraw; assay type: in vivo, Galium aparine
Method in brief: as §1

[15] = tested on: cocklebur; assay: Test B pre/postemergence cocklebur; assay type: in vivo, Xanthium strumarium
Method in brief: as §1

[16] = tested on: wild oat; assay: Test B pre/postemergence wild oat; assay type: in vivo, Avena fatua
Method in brief: as §1

[17] = Preemergence, Rate 62 g/ha, scale of 0 to 10 where 0 is no effect and 10 is complete control
[18] = Preemergence, Rate 125 g/ha, 0 is no effect, 10 is complete control
[19] = Preemergence, Rate 250 g/ha, scale 0 to 10, 0 is no effect, 10 is complete control
[20] = Preemergence, Rate 500 g/ha, scale 0 to 10 (0 no effect, 10 complete control)
[21] = Rate 62 g/ha, Postemergence, scale of 0 to 10 where 0 is no effect and 10 is complete control
[22] = Rate 125 g/ha, Postemergence, scale 0 to 10
[23] = Rate 500 g/ha, Postemergence, scale 0 to 10
[24] = Rate 62 g/ha, headed Pre-emergence (flood test species), scale 0 to 10 (0 no effect, 10 complete control)
[25] = Rate 125 g/ha, Pre-emergence, flood test species, scale 0 to 10 where 0 is no effect and 10 is complete control
[26] = Rate 250 g/ha, Pre-emergence, flood-test species, scale 0 to 10, 0 is no effect, 10 is complete control
[27] = Rate 500 g/ha, headed Pre-emergence (flood test species), scale 0 to 10 (0 no effect, 10 complete control)

## CCN(Cc1ccncc1)C(=O)n1oc(=O)n(C(C)C)c1=O [Compound 189]
[1]; [17]
  Redroot pigweed plant response rating: 0
[1]; [18]
  Redroot pigweed plant response rating (0 to 10 scale): 0
[1]; [19]
  Redroot pigweed plant response rating: 0
[1]; [20]
  Redroot pigweed plant response rating: 0
[1]; [21]
  Redroot pigweed plant response rating: 0
[1]; [22]
  Redroot pigweed plant response rating: 0
[1]; Rate 250 g/ha, Postemergence
  Plant response rating (0 to 10; 0 is no effect, 10 is complete control), Redroot pigweed: 0
[1]; [23]
  Redroot pigweed plant response rating: 0
[2]; [17]
  Velvetleaf plant response rating: 0
[2]; [19]
  Velvetleaf plant response rating: 0
[2]; [20]
  Velvetleaf plant response rating: 0
[2]; [21]
  Velvetleaf plant response rating: 0
[2]; [22]
  Velvetleaf plant response rating: 0
[2]; Rate 250 g/ha, Postemergence
  Plant response rating (0 to 10; 0 is no effect, 10 is complete control), Velvetleaf: 0
[3]; [24]
  S. Flatsedge plant response rating: 0
[3]; [25]
  S. Flatsedge plant response rating: 0
[3]; [26]
  S. Flatsedge plant response rating: 0
[3]; Rate 500 g/ha, Pre-emergence, flood test species, scale 0 to 10 (0 no effect, 10 complete control)
  S. Flatsedge plant response rating: 0
[4]; [17]
  B. signalgrass plant response rating: 3
[4]; [19]
  B. signalgrass plant response rating: 3
[4]; [20]
  B. signalgrass plant response rating: 6
[4]; [21]
  B. signalgrass plant response rating: 0
[4]; Rate 125 g/ha, Postemergence, scale 0 (no effect) to 10 (complete control)
  B. signalgrass plant response rating: 0
[4]; Rate 250 g/ha, Postemergence, scale 0 to 10, 0 is no effect, 10 is complete control
  Plant response rating, B. signalgrass: 0
[4]; Rate 500 g/ha, Postemergence, scale 0 to 10, 0 no effect, 10 complete control
  B. signalgrass plant response rating: 0
[5]; [17]
  Wheat plant response rating: 0
[5]; [19]
  Wheat plant response rating: 0
[5]; [20]
  Wheat plant response rating: 2
[5]; [21]
  Wheat plant response rating: 0
[5]; [22]
  Wheat plant response rating: 0
[5]; Rate 250 g/ha, Postemergence
  Plant response rating (0 to 10; 0 is no effect, 10 is complete control), Wheat: 0
[6]; [24]
  Ducksalad plant response rating: 0
[6]; [25]
  Ducksalad plant response rating: 0
[6]; [26]
  Ducksalad plant response rating: 0
[6]; [27]
  Plant response rating, Ducksalad: 0
[7]; [24]
  Barnyardgrass plant response rating: 0
[7]; [25]
  Barnyardgrass plant response rating: 0
[7]; [26]
  Barnyardgrass plant response rating: 0
[7]; [27]
  Plant response rating, Barnyardgrass: 0
[8]; [17]
  Soybean plant response rating: 0
[8]; [18]
  Soybean plant response rating (0 to 10 scale): 0
[8]; [19]
  Soybean plant response rating: 0
[8]; [20]
  Soybean plant response rating: 0
[8]; [21]
  Soybean plant response rating: 0
[8]; [22]
  Soybean plant response rating: 0
[8]; Rate 250 g/ha, Postemergence
  Plant response rating (0 to 10; 0 is no effect, 10 is complete control), Soybean: 0
[8]; [23]
  Soybean plant response rating: 0
[9]; [17]
  Nutsedge plant response rating: 0
[9]; [18]
  Nutsedge plant response rating (0 to 10 scale): 0
[9]; [19]
  Nutsedge plant response rating: 0
[9]; [20]
  Nutsedge plant response rating: 0
[9]; [21]
  Nutsedge plant response rating: 0
[9]; [22]
  Nutsedge plant response rating: 0
[9]; Rate 250 g/ha, Postemergence
  Plant response rating (0 to 10; 0 is no effect, 10 is complete control), Nutsedge: 0
[9]; [23]
  Nutsedge plant response rating: 0
[10]; [17]
  Blackgrass plant response rating: 1
[10]; [18]
  Blackgrass plant response rating (0 to 10 scale): 4
[10]; [19]
  Blackgrass plant response rating: 4
[10]; [20]
  Blackgrass plant response rating: 7
[10]; [21]
  Blackgrass plant response rating: 0
[10]; [22]
  Blackgrass plant response rating: 0
[10]; Rate 250 g/ha, Postemergence
  Plant response rating (0 to 10; 0 is no effect, 10 is complete control), Blackgrass: 0
[10]; [23]
  Blackgrass plant response rating: 0
[11]; [17]
  Rape plant response rating: 0
[11]; [18]
  Rape plant response rating (0 to 10 scale): 0
[11]; [19]
  Rape plant response rating: 0
[11]; [20]
  Rape plant response rating: 0
[11]; [21]
  Rape plant response rating: 0
[11]; [22]
  Rape plant response rating: 0
[11]; Rate 250 g/ha, Postemergence
  Plant response rating (0 to 10; 0 is no effect, 10 is complete control), Rape: 0
[11]; [23]
  Rape plant response rating: 0
[12]; [17]
  Morningglory plant response rating: 0
[12]; [18]
  Morningglory plant response rating (0 to 10 scale): 0
[12]; [19]
  Morningglory plant response rating: 0
[12]; [20]
  Morningglory plant response rating: 0
[12]; [21]
  Morningglory plant response rating: 0
[12]; [22]
  Morningglory plant response rating: 0
[12]; Rate 250 g/ha, Postemergence
  Plant response rating (0 to 10; 0 is no effect, 10 is complete control), Morningglory: 0
[12]; [23]
  Morningglory plant response rating: 0
[13]; [17]
  Giant foxtail plant response rating: 0
[13]; [18]
  Giant foxtail plant response rating (0 to 10 scale): 0
[13]; [19]
  Giant foxtail plant response rating: 3
[13]; [20]
  Giant foxtail plant response rating: 6
[13]; [21]
  Giant foxtail plant response rating: 0
[13]; [22]
  Giant foxtail plant response rating: 0
[13]; Rate 250 g/ha, Postemergence
  Plant response rating (0 to 10; 0 is no effect, 10 is complete control), Giant foxtail: 0
[13]; [23]
  Giant foxtail plant response rating: 0
[14]; [17]
  Bedstraw plant response rating: 0
[14]; [18]
  Bedstraw plant response rating (0 to 10 scale): 0
[14]; [19]
  Bedstraw plant response rating: 0
[14]; [20]
  Bedstraw plant response rating: 0
[14]; [21]
  Bedstraw plant response rating: 0
[14]; [22]
  Bedstraw plant response rating: 0
[14]; Rate 250 g/ha, Postemergence
  Plant response rating (0 to 10; 0 is no effect, 10 is complete control), Bedstraw: 0
[14]; [23]
  Bedstraw plant response rating: 0
[15]; [18]
  Cocklebur plant response rating (0 to 10 scale): 0
[15]; [19]
  Cocklebur plant response rating: 0
[15]; [20]
  Cocklebur plant response rating: 0
[15]; [21]
  Cocklebur plant response rating: 0
[15]; [22]
  Cocklebur plant response rating: 0
[15]; Rate 250 g/ha, Postemergence
  Plant response rating (0 to 10; 0 is no effect, 10 is complete control), Cocklebur: 0
[15]; [23]
  Cocklebur plant response rating: 0
[16]; [17]
  Wild oats plant response rating: 0
[16]; [19]
  Wild oats plant response rating: 3
[16]; [20]
  Wild oats plant response rating: 3
[16]; [21]
  Wild oats plant response rating: 0
[16]; [22]
  Wild oats plant response rating: 0
[16]; Rate 250 g/ha, Postemergence
  Plant response rating (0 to 10; 0 is no effect, 10 is complete control), Wild oats: 0
